Where “and” joins values, the source holds several entries; their conditions need not be identical. Equal entries are not always repeated.
Key:
[1] = system: patients with astigmatism (UDVA less than 0.8); assay: Uncorrected distance visual acuity (UDVA) of eyes with astigmatism after Huperzine A eye drops; assay type: in vivo, human; conditions: 2 patients, 4 eyes with astigmatism
Method: (§1) A non-randomized clinical case study involving 40 eyes of 20 presbyopia patients with uncorrected distance visual acuity (UDVA) of 0.4-1.0 and uncorrected near visual acuity (UNVA) of less than Jaeger1, aged 33-70 years is conducted. The patients are randomly divided into 3 groups, using eye drops with concentration of Huperzine A ranging from 0.1%-0.3% for clinical trials. Data are collected on changes in visual acuity, including UDVA, UNVA40, UNVA66, pupil diameter changes, and non-contact intraocular pressure, before and 30 minutes after Huperzine A eye drops. The data are grouped according to drug concentration and age and are analyzed. The discomfort symptoms appeared half an hour after using the eye drops are recorded, and the time when the relevant symptoms disappeared is obtained during the telephone interview in the following 3 days. A detailed description of the case study is further illustrated below.
Participants first complete a health declaration questionnaire with assistance from medical staff. They then measure their blood pressure and heart rate before undergoing computer optometry, as well as examinations for best corrected distance visual acuity and uncorrected distance visual acuity. They use the Jaeger score table to assess uncorrected reading visual acuity at 40 cm (UNVA40) and 66 cm (UNVA66) for computer visual acuity. […]

presbyopia patients [2] = assay: Non-randomized clinical case study of Huperzine A eye drops: uncorrected near visual acuity (UNVA40, UNVA66) before and 30 minutes after; assay type: in vivo, human
Method: as §1
The clinical study of the present invention is conducted in March 2022 at a university hospital. Individuals over the age of 30 who feel their near vision has decreased are recruited and voluntarily participate in the test through a long-term open recruitment process. Inclusion criteria include best corrected distance visual acuity of 1.0, 40 cm reading visual acuity (UNVA40) or 66 cm computer visual acuity (UNVA66) lower than the Jaeger score J1, normal intraocular pressure, no history of retinal-related medical conditions, good general health, absence of systemic symptoms, and no rheumatic or systemic immune diseases.
Participants first complete a health declaration questionnaire with assistance from medical staff. They then measure their blood pressure and heart rate before undergoing computer optometry, as well as examinations for best corrected distance visual acuity and uncorrected distance visual acuity. They use the Jaeger score table to assess uncorrected reading visual acuity at 40 cm (UNVA40) and 66 cm (UNVA66) for computer visual acuity. Additionally, they have non-contact intraocular pressure measurements, pupil diameter assessments under room lighting, and a slit lamp examination by an experienced clinical ophthalmologist to rule out ocular diseases. Fundus photography is also performed.
Participants who meet the screening criteria are randomly divided into […]. One drop of 0.1%-0.3% Huperzine A eye drops is administered in each eye. After 30 minutes, the best corrected distance visual acuity, uncorrected distance visual acuity at 40 cm (UNVA40), and 66 cm computer visual acuity (UNVA66) are measured again, along with non-contact intraocular pressure and pupil diameter under room lighting.
The drug used in this present test is Huperzine A at a range of 0.1%-0.3% concentration, using standard ophthalmic dropper bottles, each yielding 40 μL drops and each drop effectively dispenses 0.1%-0.3%.
The collected data are organized so that J1+ is recorded as 0 on the Jaeger scale, J1 as 1, J2 as 2, and so forth.
The patients are grouped by age: 40 years old or below (2 people, 4 eyes), 41-50 years old (9 people, 18 eyes), 51-60 years old (6 people, 12 eyes), 61-70 years old (2 people, 4 eyes), and over 70 years old (1 people, 2 eyes).

presbyopia patients [3] = assay: Side effects reported by patients after Huperzine A eye drops; conditions: human, in vivo
Method: as §1
The duration of these side effects varies from 2 to 5 hours and gradually relieves over time. Additionally, some patients report an increase in tear secretion after using the eye drops.

presbyopia patients [4] = assay: Visual acuity before and after treatment with Huperzine A, TRAC1 and their combination (three patients); assay type: in vivo, human; parameters: scale not given here
Method: This hypothesis is tested by using 0.05%-0.3% Huperzine A and 0.05%-0.3% TRAC1. Three patients are treated with each drug, as well as the combination of both drugs.

[5] = Group 1, 40 years old or below, 2 people 4 eyes
[6] = Group 2, 41-50 years old, 9 people 18 eyes
[7] = Group 3, 51-60 years old, 6 people 12 eyes
[8] = Group 4, 61-70 years old, 2 people 4 eyes
[9] = Group 5, over 70 years old, 1 person 2 eyes
[10] = all patients, 20 patients 40 eyes, 0.1%-0.3% eye drops, 30 minutes after
[11] = Patient 1, Right eye (OD), Jaeger score, 0.05%-0.3%

In the case of `C/C=C1\[C@H]2C=C(C)C[C@]1(N)c1ccc(=O)[nH]c1C2` [Huperzine A], the “UDVA increase after Huperzine A eye drops” value [1] was 0.2 and 0.1, the N40 improved (presbyopia patients [2]; [5]) was 2.25 J and the N66 improved (presbyopia patients [2]; [5]) was 1.50 J. For the same compound, the “UNVA40 after treatment (Near 40, After)” value (presbyopia patients [2]; [5]) was 1.00 J, the “UNVA66 after treatment (Near 66, After)” value (presbyopia patients [2]; [5]) was 2.75 J and the N40 improved (presbyopia patients [2]; [6]) was 3.05 J and 3.06 J. For the same compound, the N66 improved (presbyopia patients [2]; [6]) was 1.72 J, the “UNVA40 after treatment (Near 40, After)” value (presbyopia patients [2]; [6]) was 1.89 J and the “UNVA66 after treatment (Near 66, After)” value (presbyopia patients [2]; [6]) was 1.61 J. For the same compound, the N40 improved (presbyopia patients [2]; [7]) was 1.92 J, the N66 improved (presbyopia patients [2]; [7]) was 2.33 J and the “UNVA40 after treatment (Near 40, After)” value (presbyopia patients [2]; [7]) was 3.75 J. For the same compound, the “UNVA66 after treatment (Near 66, After)” value (presbyopia patients [2]; [7]) was 3.67 J, the N40 improved (presbyopia patients [2]; [8]) was 3.75 J and the N66 improved (presbyopia patients [2]; [8]) was 2.00 J. For the same compound, the “UNVA40 after treatment (Near 40, After)” value (presbyopia patients [2]; [8]) was 2.25 J, the “UNVA66 after treatment (Near 66, After)” value (presbyopia patients [2]; [8]) was 3.00 J and the N40 improved (presbyopia patients [2]; [9]) was 6.00 J. For the same compound, the N66 improved (presbyopia patients [2]; [9]) was 4.50 J, the “UNVA40 after treatment (Near 40, After)” value (presbyopia patients [2]; [9]) was 7.00 J and the “UNVA66 after treatment (Near 66, After)” value (presbyopia patients [2]; [9]) was 4.00 J. The “N40 improved (average improvement of UNVA40)” value (presbyopia patients [2]; [10]) was 2.85 J, the “N66 improved (average improvement of UNVA66)” value (presbyopia patients [2]; [10]) was 2.05 J and the “UNVA66 after treatment (Near 66, After)” value (presbyopia patients [2]; all patients, 20 patients 40 eyes, 0.1%-0.3% eye drops, 30 minutes after, Jaeger score) was 2.60 J. The “UNVA40 after treatment (Near 40, After)” value (presbyopia patients [2]; all patients, 20 patients 40 eyes, 0.1%-0.3% eye drops, 30 minutes after, Jaeger score, J1+ = 0) was 2.65 J, the “effect on near vision, 41-50-year-old group compared with 51-60-year-old group” value (presbyopia patients [2]; human, in vivo) was “more significant effect on the former group” and the “lacrimation (side effect)” value (presbyopia patients [3]) was 6%. For the same compound, the “Near 40 cm, After treatment” value (presbyopia patients [4]; Patient 1, Left eye (OS)) was 3, the “Near 40 cm, Improvement” value (presbyopia patients [4]; Patient 1, Left eye (OS)) was 2 and the “Near 66 cm, After treatment” value (presbyopia patients [4]; Patient 1, Left eye (OS)) was 2. The “Near 66 cm, Improvement” value (presbyopia patients [4]; Patient 1, Left eye (OS)) was 2, the “Near 40 cm, Improvement” value (presbyopia patients [4]; Patient 1, Right eye (OD)) was 3 and the “Near 66 cm, After treatment” value (presbyopia patients [4]; Patient 1, Right eye (OD)) was 2. For the same compound, the “Near 66 cm, Improvement” value (presbyopia patients [4]; Patient 1, Right eye (OD)) was 2, the “Near 40 cm, After treatment” value (presbyopia patients [4]; [11]) was 3 and the “Near 40 cm, After treatment” value (presbyopia patients [4]; Patient 2, Left eye (OS)) was 4. The “Near 40 cm, Improvement” value (presbyopia patients [4]; Patient 2, Left eye (OS)) was 5, the “Near 66 cm, After treatment” value (presbyopia patients [4]; Patient 2, Left eye (OS)) was 2 and the “Near 66 cm, Improvement” value (presbyopia patients [4]; Patient 2, Left eye (OS)) was 4. For the same compound, the “Near 40 cm, After treatment” value (presbyopia patients [4]; Patient 2, Right eye (OD)) was 4, the “Near 40 cm, Improvement” value (presbyopia patients [4]; Patient 2, Right eye (OD)) was 6 and the “Near 66 cm, After treatment” value (presbyopia patients [4]; Patient 2, Right eye (OD)) was 3. For the same compound, the “Near 66 cm, Improvement” value (presbyopia patients [4]; Patient 2, Right eye (OD)) was 3, the “Near 40 cm, After treatment” value (presbyopia patients [4]; Patient 3, Left eye (OS)) was 3 and the “Near 40 cm, Improvement” value (presbyopia patients [4]; Patient 3, Left eye (OS)) was 8. For the same compound, the “Near 66 cm, After treatment” value (presbyopia patients [4]; Patient 3, Left eye (OS)) was 3, the “Near 66 cm, Improvement” value (presbyopia patients [4]; Patient 3, Left eye (OS)) was 6 and the “Near 40 cm, After treatment” value (presbyopia patients [4]; Patient 3, Right eye (OD)) was 2. The “Near 40 cm, Improvement” value (presbyopia patients [4]; Patient 3, Right eye (OD)) was 6, the “Near 66 cm, After treatment” value (presbyopia patients [4]; Patient 3, Right eye (OD)) was 2 and the “Near 66 cm, Improvement” value (presbyopia patients [4]; Patient 3, Right eye (OD)) was 5.

With `Nc1c2c(nc3ccccc13)CCCC2` [Tacrine] the “Near 40 cm, After treatment” value (presbyopia patients [4]; Patient 1, Left eye (OS)) was 3, the “Near 40 cm, Improvement” value (presbyopia patients [4]; Patient 1, Left eye (OS)) was 2 and the “Near 66 cm, After treatment” value (presbyopia patients [4]; Patient 1, Left eye (OS)) was 2. The “Near 66 cm, Improvement” value (presbyopia patients [4]; Patient 1, Left eye (OS)) was 2, the “Near 40 cm, Improvement” value (presbyopia patients [4]; Patient 1, Right eye (OD)) was 3 and the “Near 66 cm, After treatment” value (presbyopia patients [4]; Patient 1, Right eye (OD)) was 2. For the same compound, the “Near 66 cm, Improvement” value (presbyopia patients [4]; Patient 1, Right eye (OD)) was 2, the “Near 40 cm, After treatment” value (presbyopia patients [4]; [11]) was 3 and the “Near 40 cm, After treatment” value (presbyopia patients [4]; Patient 2, Left eye (OS)) was 4. The “Near 40 cm, Improvement” value (presbyopia patients [4]; Patient 2, Left eye (OS)) was 5, the “Near 66 cm, After treatment” value (presbyopia patients [4]; Patient 2, Left eye (OS)) was 2 and the “Near 66 cm, Improvement” value (presbyopia patients [4]; Patient 2, Left eye (OS)) was 4. The “Near 40 cm, After treatment” value (presbyopia patients [4]; Patient 2, Right eye (OD)) was 4, the “Near 40 cm, Improvement” value (presbyopia patients [4]; Patient 2, Right eye (OD)) was 6 and the “Near 66 cm, After treatment” value (presbyopia patients [4]; Patient 2, Right eye (OD)) was 3. The “Near 66 cm, Improvement” value (presbyopia patients [4]; Patient 2, Right eye (OD)) was 3, the “Near 40 cm, After treatment” value (presbyopia patients [4]; Patient 3, Left eye (OS)) was 3 and the “Near 40 cm, Improvement” value (presbyopia patients [4]; Patient 3, Left eye (OS)) was 8. The “Near 66 cm, After treatment” value (presbyopia patients [4]; Patient 3, Left eye (OS)) was 3, the “Near 66 cm, Improvement” value (presbyopia patients [4]; Patient 3, Left eye (OS)) was 6 and the “Near 40 cm, After treatment” value (presbyopia patients [4]; Patient 3, Right eye (OD)) was 2. The “Near 40 cm, Improvement” value (presbyopia patients [4]; Patient 3, Right eye (OD)) was 6, the “Near 66 cm, After treatment” value (presbyopia patients [4]; Patient 3, Right eye (OD)) was 2 and the “Near 66 cm, Improvement” value (presbyopia patients [4]; Patient 3, Right eye (OD)) was 5.

Source: patent US20250288567A1, “PHARMACEUTICAL COMPOSITION FOR TREATING PRESBYOPIA” (Sight Health Hong Kong Biotechnology Co., Limited, priority 2024, published 2025)
